Read-outs that look alike come from different tables or passages of the source. Values belong to the compound of their own block, whether it stands above or below them.
Columns and labels:
xenograft mouse models = system: xenograft mouse models; set-up: method as in PMID 32215185, PMID 25398829; settings: cited from earlier work
[1] = system: PTEN-null and PI3Kβ-driven preclinical models of breast and prostate cancer; set-up: method as in PMID 32215185, PMID 25398829; settings: in vitro; cited from earlier work
advanced solid tumors = system: advanced solid tumors; set-up: method as in PMID 35247924; settings: 60 mg b.i.d. and 120 mg b.i.d.; cited from earlier work
[2] = AZD8186 plasma pharmacokinetics (UPLC-MS/MS, noncompartmental); type: in vivo, human; settings: for Cmin,ss / Cmax / Tmax / AUC(0-t): plasma; for Cmax / Tmax / AUC(0-t): human, oral, C2D1; for AUC(0-t): read-out: AUC0-6h
Protocol: (§1) Plasma samples were collected at predefined time points based upon the dosing schedules for docetaxel and AZD8186. Cycle 1, day 1 (C1D1) pretreatment baseline measurements were collected for both drugs. For docetaxel, samples were collected as follows: C2D1, pretreatment, 30 min and 55 min after the start of the docetaxel infusion, and 2 h and 5 h after the end of the docetaxel infusion; C2D2, ∼24 h after the start of the docetaxel infusion. For AZD8186, samples were collected as follows: C2D1, pretreatment and 1 h, 3 h, and 6 h after dosing; C2D2, ∼24 h after dose and before the next AZD8186 dose. Starting from cycle 3, a day 1 pretreatment sample was collected at each scheduled visit.
(§2) Plasma concentrations of docetaxel were quantified using a validated liquid chromatography and tandem mass spectrometry.[36] The lower limit of quantitation for docetaxel was 0.5 ng/ml. AZD8186 plasma concentration was quantified using a validated ultraperformance liquid chromatography and tandem mass spectrometry method with a 5-2000 ng/ml dynamic range. Assays were carried out at the Sidney Kimmel Comprehensive Cancer Center Analytical Pharmacology Core Laboratory at Johns Hopkins University.
Statistical analysis for pharmacokinetic (PK) studies was carried out using Graph Pad Prism software version 9.4.1 (GraphPad Software, Inc., Boston, MA). PK parameters were evaluated statistically by Kruskal–Wallis test. Significance was determined at a level of P < 0.05. Between-group comparisons were conducted using the Wilcoxon signed rank test.

[3] = system: castration-resistant prostate cancer with PTEN loss; set-up: method as in PMID 28645941; settings: cited from earlier work
clinical = settings: human, in vivo
Protocol: as §1
as §2, with “Assays were carried out at the Sidney Kimmel Comprehensive Cancer Center Analytical Pharmacology Core Laboratory at Johns Hopkins University.” left out
Statistical analysis for pharmacokinetic (PK) studies was carried out using Graph Pad Prism software version 9.4.1 (GraphPad Software, Inc., Boston, MA). PK parameters were evaluated statistically by Kruskal–Wallis test. Significance was determined at a level of P < 0.05. […]

[4] = TAC-1B AZD8186 reduced: docetaxel 45 mg/m^2, AZD8186 30 mg, n=1
[5] = TAC1+GF: docetaxel 75 mg/m^2, AZD8186 60 mg, n=3
[6] = TAC-1: docetaxel 75 mg/m^2, AZD8186 60 mg, n=1
[7] = TAC-1B: docetaxel 60 mg/m^2, AZD8186 60 mg, n=1
[8] = TAC-2: docetaxel 75 mg/m^2, AZD8186 120 mg, n=7

Structure (SMILES): C[C@@H](Nc1cc(F)cc(F)c1)c1cc(C(=O)N(C)C)cc2c(=O)cc(N3CCOCC3)oc12 [AZD8186]
single-agent activity in vivo (xenograft mouse models): limited single-agent activity
PI3K signaling and viability [1]: inhibited PI3K signaling and viability
tolerability and target inhibition in plasma (advanced solid tumors): tolerable with dose-dependent target inhibition in plasma
steady-state trough concentrations across dosing cohorts ([2]; Kruskal-Wallis): not significantly different
Cmin,ss ([2]; TAC1+GF: docetaxel 75 mg/m^2, AZD8186 60 mg, n=1): 176.0 (1) ng/mL
Cmin,ss ([2]; TAC-1: docetaxel 75 mg/m^2, AZD8186 60 mg, mean ± SD, n=3): 149.8 ± 77.2 (3) ng/mL
Cmin,ss ([2]; TAC-1 AZD8186 reduced: docetaxel 60 mg/m^2, AZD8186 30 mg, n=1): 66.0 (1) ng/mL
Cmin,ss [2, 4]: 130.0 (1) ng/mL
Cmin,ss ([2]; TAC-1B: docetaxel 60 mg/m^2, AZD8186 60 mg, mean ± SD, n=3): 83.5 ± 55.1 (3) ng/mL
Cmin,ss ([2]; TAC-2: docetaxel 75 mg/m^2, AZD8186 120 mg, mean ± SD, n=6): 76.8 ± 49.2 (6) ng/mL
Cmax ([2]; TAC1+GF: docetaxel 75 mg/m^2, AZD8186 60 mg): 166 ng/mL
Tmax [2, 5]: 2.76 h
AUC(0-t) [2, 5]: 224 ng·h/mL
Cmax ([2]; TAC-1: docetaxel 75 mg/m^2, AZD8186 60 mg): 464 ng/mL
Tmax [2, 6]: 3.87 h
AUC(0-t) [2, 6]: 1110 ng·h/mL
Cmax [2, 4]: 253 ng/mL
Tmax [2, 4]: 8.43 h
AUC(0-t) [2, 4]: 789 ng·h/mL
Cmax [2, 7]: 285 ng/mL
Tmax [2, 7]: 4.75 h
AUC(0-t) [2, 7]: 808 ng·h/mL
Cmax ([2]; TAC-2: docetaxel 75 mg/m^2, AZD8186 120 mg): 532 ng/mL
Tmax [2, 8]: 4.43 h
AUC(0-t) [2, 8]: 1800 ng·h/mL

Structure (SMILES): Cc1c(Cn2c(C)nc3c(C(=O)O)cc(N4CCOCC4)cc32)cccc1C(F)(F)F [GSK2636771]
responses [3]: only anecdotal responses

Tmax (clinical): 0.92 h
Structure (SMILES): CC(=O)O[C@@]12CO[C@@H]1C[C@H](O)[C@@]1(C)C(=O)[C@H](O)C3=C(C)[C@@H](OC(=O)[C@H](O)[C@@H](NC(=O)OC(C)(C)C)c4ccccc4)C[C@@](O)([C@@H](OC(=O)c4ccccc4)[C@H]21)C3(C)C [docetaxel]

From publication PMC12529303, “A phase I study of AZD8186 in combination with docetaxel in patients with PTEN-mutated or PIK3CB-mutated advanced solid tumors” (ESMO Open, 2025)
